In patent US8722715B2, “Antimicrobial oxazolidinone, hydantoin and imidazolidinone compositions” (NovaBay Pharmaceuticals, priority 2008, dated 2014):

How the values were obtained:
Type in all cases: cell-based
[1] = tested on: Escherichia coli (ATCC 25922); experiment: Antimicrobial activity, MBC, E. coli ATCC 25922; conditions: 1 h at room temperature
Procedure: (§1) To determine antimicrobial activity of compounds of the present disclosure, Escherichia coli (ATCC 25922), Staphylococcus aureus (ATCC 29213), Pseudomonas aeruginosa (ATCC 27853), and Candida albicans (ATCC 10231) were used in primary screening. In addition, Escherichia coli (MCC 80392), Staphylococcus aureus (MCC 91731), Pseudomonas aeruginosa (MCC 4438), and Candida albicans (MCC 50319), provided by Alcon Laboratories, Fort Worth, Tex., were used. The microbial cultures were diluted in sterile saline pH 4 to prepare inocula. Test compounds were titrated by stepwise two-fold dilutions in sterile saline pH 4. A total of 1.0×10^5 to 1.0×10^6 Colony Forming Units (CFU)/mL microbe was added to each tube, mixed by gentle vortexing, and then incubated at room temperature for 1 h. Microbial plating on Petri dishes (Tryptic Soy agar or Saboraud's Dextrose agar) was performed immediately after the designated exposure after neutralization of the test article dilutions in Dey-Engley Broth. Plates were incubated at 37° C., and the numbers of microbes were counted by direct colony count to quantitate the surviving microbes as CFU/mL. Positive growth controls were made with sterile 0.9% saline. Compounds were dissolved in unbuffered isotonic saline (SAL) or phosphate buffered saline (PBS) at pH 4 or pH 7 (using HCl and/or NaOH as needed). All compounds were tested three times. The results are tabulated to show the comparison of antimicrobial effectiveness range of the compounds. Data shown are the Minimum Bactericidal Concentration (MBC) or Minimum Fungicidal Concentration (MFC) (≧99.9% kill) in μg/mL.

[2] = tested on: Staphylococcus aureus (ATCC 29213); experiment: Antimicrobial activity, MBC, S. aureus ATCC 29213; conditions: 1 h at room temperature
Procedure: as §1

[3] = tested on: Candida albicans (ATCC 10231); experiment: Antimicrobial activity, MFC, C. albicans ATCC 10231; conditions: 1 h at room temperature
Procedure: as §1

[4] = tested on: mouse fibroblast cells (ATCC CCL-1, L929); experiment: Cytotoxicity, WST-8 colorimetric assay; conditions: pH 4 (Sal), 60 min exposure, WST-8 read after 18-20 hours
Procedure: Cytotoxicity is assessed by a colorimetric assay system using the Dojindo™ cell counting kit containing 2-(2-methoxy-4-nitrophenyl)-3-(4-nitrophenyl)-5-(2,4-disulfophenyl)-2H-tetrazolium, monosodium salt (WST-8). In this assay, the WST-8 reagent is bioreduced by cellular dehydrogenases to a formazan product that is highly soluble in tissue culture medium. The orange formazan, which is produced only by live cells, is a direct measure of cell viability and can be read spectrophotometrically (e.g., evaluation of a soluble tetrazolium/formazan assay for cell growth and drug sensitivity in culture using human and other tumor cell lines is described by D. A. Scudiero et al., Cancer Res., 48(17), 4827-33 (1988). Similar approaches for determining the cell viability are known in the art.
In a standard assay, mouse fibroblast cells (ATCC CCL-1, L929), are cultured in Minimum Essential Medium, α-medium supplemented with 10% heat inactivated fetal bovine serum, L-glutamine, penicillin and streptomycin. Cells are trypsinized and counted under the microscope and seeded at 1.5×10^4 total cells per 100 μL per well of a flat-bottom 96-well plate in order to achieve ˜80% confluence after overnight incubation at 37° C. […]
Test articles were prepared as 2-fold serial dilutions and 170 μL of each dilution was added into each of 4-wells (total volume per well=200 μL). […] Absorbance was read at 450 nm with reference wavelength at 750 nm using Molecular Device SpectraMax M5 plate reader. […]
The CT50 value for each compound was calculated from the absorbance values (A450/750) and is defined as the concentration of test article that results in survival of 50% of the cells following treatment. The absorbance A450/750 from each well of untreated cells and from each well within the dilution series was measured. […] Next, a non-linear regression (curve fit) analysis was performed on all the absorbance data measured from the dilution series, including the absorbance data obtained from wells of the untreated control cells. […]

[5] = tested on: Pseudomonas aeruginosa (ATCC 27853); experiment: Antimicrobial activity, MBC, P. aeruginosa ATCC 27853; conditions: pH 7 (PBS), 1 h at room temperature
Procedure: as §1, with “The results are tabulated to show the comparison of antimicrobial effectiveness range of the compounds. Data shown are the Minimum Bactericidal Concentration (MBC) or Minimum Fungicidal Concentration (MFC) (≧99.9% kill) in μg/mL.” left out

[6] = tested on: Escherichia coli (MCC 80392); experiment: Antimicrobial activity, MBC, E. coli MCC 80392; conditions: 1 h at room temperature
Procedure: as §1, with “The results are tabulated to show the comparison of antimicrobial effectiveness range of the compounds. Data shown are the Minimum Bactericidal Concentration (MBC) or Minimum Fungicidal Concentration (MFC) (≧99.9% kill) in μg/mL.” left out

[7] = tested on: Staphylococcus aureus (MCC 91731); experiment: Antimicrobial activity, MBC, S. aureus MCC 91731; conditions: 1 h at room temperature
Procedure: as §1, with “The results are tabulated to show the comparison of antimicrobial effectiveness range of the compounds. Data shown are the Minimum Bactericidal Concentration (MBC) or Minimum Fungicidal Concentration (MFC) (≧99.9% kill) in μg/mL.” left out

[8] = tested on: Candida albicans (MCC 50319); experiment: Antimicrobial activity, MFC, C. albicans MCC 50319; conditions: 1 h at room temperature
Procedure: as §1, with “The results are tabulated to show the comparison of antimicrobial effectiveness range of the compounds. Data shown are the Minimum Bactericidal Concentration (MBC) or Minimum Fungicidal Concentration (MFC) (≧99.9% kill) in μg/mL.” left out

Compound | Minimum Bactericidal Concentration (MBC) (≧99.9% kill) ([1]; pH 4 (Sal)) | Minimum Bactericidal Concentration (MBC) (≧99.9% kill) ([1]; pH 7 (PBS)) | Minimum Bactericidal Concentration (MBC) (≧99.9% kill) ([2]; pH 4 (Sal)) | Minimum Bactericidal Concentration (MBC) (≧99.9% kill) ([2]; pH 7 (PBS)) | Minimum Fungicidal Concentration (MFC) (≧99.9% kill) ([3]; pH 7 (PBS)) | CT50 (concentration of test article that results in survival of 50% of the cells) [4] | Minimum Fungicidal Concentration (MFC) (≧99.9% kill) ([3]; pH 4 (Sal)) | Minimum Bactericidal Concentration (MBC) (≧99.9% kill) [5] | Minimum Bactericidal Concentration (MBC) (≧99.9% kill) ([6]; pH 4 (Sal)) | Minimum Bactericidal Concentration (MBC) (≧99.9% kill) ([6]; pH 7 (PBS)) | Minimum Bactericidal Concentration (MBC) (≧99.9% kill) ([7]; pH 4 (Sal)) | Minimum Bactericidal Concentration (MBC) (≧99.9% kill) ([7]; pH 7 (PBS)) | Minimum Fungicidal Concentration (MFC) (≧99.9% kill) ([8]; pH 4 (Sal)) | Minimum Fungicidal Concentration (MFC) (≧99.9% kill) ([8]; pH 7 (PBS))
C[N+]1(C)CCC2(CC1)CN(Cl)C(=O)O2.[Cl-] [Compound 22-36, 3-chloro-8,8-dimethyl-2-oxo-1-oxa-3-aza-8-azoniaspiro[4.5]decane chloride] | 256 µg/mL | 16 µg/mL | 512 µg/mL | 32 µg/mL | 256 µg/mL | 0.7 mM |  |  |  |  |  |  |  | 
CC1(C[N+](C)(C)C)COC(=O)N1Cl.[Cl-] (centres unmarked) [Compound 22-04, 1-(3-Chloro-4-methyl-2-oxooxazolidin-4-yl)-N,N,N-trimethylmethanaminium chloride] | 16 µg/mL |  | 64 µg/mL |  |  |  | >256 µg/mL |  |  |  |  |  |  | 
CC1(CS(=O)(=O)O)COC(=O)N1Cl (centres unmarked) [Compound 22-01, (3-chloro-4-methyl-2-oxooxazolidin-4-yl)methanesulfonic acid] | 256 µg/mL | 128 µg/mL | 256 µg/mL | 256 µg/mL | 1024 µg/mL | 1.1 mM | >512 µg/mL | 256 µg/mL | 2 µg/mL | 16 µg/mL | 16 µg/mL | 16 µg/mL | 128 µg/mL | 128 µg/mL
CN1C(=O)N(Cl)C(C)(C[N+](C)(C)C)C1=O.[Cl-] (centres unmarked) [Compound 22-27, 1-(3-chloro-1,4-dimethyl-2,5-dioxoimidazolidin-4-yl)-N,N,N-trimethylmethanaminium chloride] | 16 µg/mL |  | 64 µg/mL |  |  |  | >256 µg/mL |  |  |  |  |  |  | 
2-(3-Chloro-4,4-dimethyl-2,5-dioxoimidazolidin-1-yl)-N,N,N-trimethylethanaminium chloride [Compound 22-48] | 128 µg/mL | 4 µg/mL | >128 µg/mL | 16 µg/mL | 128 µg/mL |  | 1024 µg/mL |  |  |  |  |  |  | 
CC[N+](C)(C)CC1(C)COC(=O)N1Cl.[Cl-] (centres unmarked) [Compound 22-38, N-((3-chloro-4-methyl-2-oxooxazolidin-4-yl)methyl)-N,N-dimethylethanaminium chloride] | 16 µg/mL | 2 µg/mL | 64 µg/mL | 4 µg/mL | 8 µg/mL | 0.86 mM |  |  |  |  |  |  |  | 
